Data reported in ChEMBL document CHEMBL1124120, “Mapping of the beta 2-adrenoceptor on Chang liver cells. Differences between high- and low-affinity receptor states” (J Med Chem, 1988).

Columns and labels:
[1] = molecular target: Beta-2 adrenergic receptor (Bos taurus) (UniProt Q28044); conditions: Muscle tissue
Description: Change in Gibb's free energy at Low affinity beta-2-adrenoceptor in the membranes of bovine skeletal muscle preparation

[2] = molecular target: Beta-2 adrenergic receptor (Homo sapiens) (UniProt P07550)
Description: Change in Gibb's free energy at Low affinity beta-2-adrenoceptor in the Chang living cells

[3] = molecular target: Beta-2 adrenergic receptor (Homo sapiens) (UniProt P07550); remark: listed apart in the source
Description: Change in Gibb's free energy at High affinity beta2- adrenoceptor in Chang living cells.

Chain of Beta-2 adrenergic receptor (Homo sapiens) (P07550 whole entry, looked up): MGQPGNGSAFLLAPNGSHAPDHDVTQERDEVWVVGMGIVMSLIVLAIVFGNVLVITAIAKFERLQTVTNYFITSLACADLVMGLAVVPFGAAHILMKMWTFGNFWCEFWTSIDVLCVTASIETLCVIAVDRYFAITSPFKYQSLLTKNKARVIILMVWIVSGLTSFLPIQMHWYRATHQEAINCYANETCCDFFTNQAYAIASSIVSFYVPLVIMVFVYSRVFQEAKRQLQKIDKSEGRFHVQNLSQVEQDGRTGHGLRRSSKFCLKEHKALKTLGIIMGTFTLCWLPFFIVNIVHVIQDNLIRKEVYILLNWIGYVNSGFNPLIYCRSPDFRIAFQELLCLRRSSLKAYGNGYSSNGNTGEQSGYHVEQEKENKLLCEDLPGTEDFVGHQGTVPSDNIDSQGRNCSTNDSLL
Chain of Beta-2 adrenergic receptor (Bos taurus) (Q28044 whole entry, looked up): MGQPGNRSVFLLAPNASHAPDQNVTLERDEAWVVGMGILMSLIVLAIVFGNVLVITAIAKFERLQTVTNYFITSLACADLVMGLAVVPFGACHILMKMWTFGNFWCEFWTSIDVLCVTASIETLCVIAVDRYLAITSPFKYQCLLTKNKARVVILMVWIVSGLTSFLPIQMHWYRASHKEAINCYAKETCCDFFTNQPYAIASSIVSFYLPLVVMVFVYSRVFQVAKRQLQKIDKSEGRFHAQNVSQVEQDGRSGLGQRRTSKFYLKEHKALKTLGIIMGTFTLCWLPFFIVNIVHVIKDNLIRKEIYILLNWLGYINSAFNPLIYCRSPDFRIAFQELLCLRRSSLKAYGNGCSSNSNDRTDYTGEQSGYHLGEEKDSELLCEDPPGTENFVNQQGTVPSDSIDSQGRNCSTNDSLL

| SMILES | -Delta G [1] | -Delta G [2] | -Delta G [3] |
| --- | --- | --- | --- |
| C=CCc1ccccc1OCC(O)CNC(C)C (stereo not given) | 13.3 |  |  |
| C=CCc1ccccc1OCC(O)CNCC(C)(C)N (stereo not given) |  | 9.54 |  |
| CC(C)(C)NCC(O)c1ccccc1Cl (stereo not given) |  | 9.17 |  |
| CC(C)NCC(O)COc1cccc2[nH]ccc12 (stereo not given) |  | 12.8 |  |
| CCCc1ccccc1OCC(O)CNC(C)C (stereo not given) | 13.1 | 12.9 |  |
| CNC[C@H](O)c1ccc(O)c(O)c1 |  | 6.92 | 10.1 |
| NC[C@H](O)c1ccc(O)c(O)c1 |  | 6 | 8.64 |
| CC(C)(C)NCC(O)COc1cccc2[nH]c(C#N)c(I)c12 (racemic) |  | 15.2 |  |
| CC(C)(C)NCC(O)c1cc(Cl)c(N)c(Cl)c1 (racemic) | 11 |  |  |
| CC(C)(C)NCC(O)c1cc(Cl)c(O)c(Cl)c1 (racemic) | 10.5 | 11.1 |  |
| CC(C)(C)NCC(O)c1cc(O)cc(O)c1 (racemic) | 8.13 |  |  |
| CC(C)(C)NCC(O)c1ccc(O)c(C(N)=O)c1 (racemic) |  | 9.54 | 11.2 |
| CC(C)(C)NCC(O)c1ccc(O)c(CO)c1 (racemic) | 9.34 |  |  |
| CC(C)(C)NCC(O)c1ccc(O)c(N)c1 (racemic) | 8.5 | 7.73 | 9.69 |
| CC(C)(C)NCC(O)c1ccc(O)c(O)c1 (racemic) | 9.29 | 8.5 | 11.7 |
| CC(C)(N)CNCC(O)COc1cccc2[nH]ccc12 (racemic) |  | 10.1 |  |
| CC(C)NCC(O)c1cc(Cl)c(N)c(Cl)c1 (racemic) | 10.7 | 9.08 | 11.1 |
| CC(C)NCC(O)c1cc(O)cc(O)c1 (racemic) |  | 7.19 | 10.7 |
| CC(C)NCC(O)c1ccc(NS(C)(=O)=O)cc1 (racemic) | 9.32 |  |  |
| CC(C)NCC(O)c1ccc(O)c(CO)c1 (racemic) |  | 7.41 | 9.6 |
| CC(C)NCC(O)c1ccc(O)c(N)c1 (racemic) | 7.93 | 7.17 | 9.13 |
| CC(C)NCC(O)c1ccc(O)cc1 (racemic) |  |  | 9.76 |
| CC(C)NCC(O)c1ccc([N+](=O)[O-])cc1 (racemic) |  | 8.23 |  |
| CC(C)NCC(O)c1ccc2ccccc2c1 (racemic) | 10.1 |  |  |
| CC(C)NCC(O)c1cccc(O)c1 (racemic) | 9 | 7.05 |  |
| CC(C)NC[C@H](O)COc1ccc(O)cc1 (racemic) | 8.9 | 9.76 |  |
| CC(Cc1ccc(O)cc1)NCC(O)c1cc(O)cc(O)c1 (racemic) |  | 8.28 |  |
| CNc1cc(C(O)CNC(C)(C)C)ccc1O (racemic) |  | 9.39 | 10.5 |
| Cc1cc(C)cc(OCC(O)CNC(C)C)c1 (racemic) | 11.8 | 10.4 |  |
| Cc1cccc(OCC(O)CNC(C)C)c1 (racemic) | 10.9 | 11.4 |  |
